Several values for one entry are separate records, joined by “and”; a condition that tells them apart may be missing. Equal entries are not always repeated.
Key:
[1] = test system: DTH response to 2,4-dinitrofluorobenzene (DNFB); experiment: Delayed-type hypersensitivity (DTH) response to DNFB, ear swelling; format: in vivo, Balb/C mice; details: for Mean percentage decrease in ear swelling in treated animals: versus saline controls; for Mean Difference, Treated: group mean; for Difference (right minus left ear), Treated / Right ear thickness, Treated / Left ear thickness, Treated: individual mice, 24 hours after challenge; for Right ear thickness, Treated: challenged ear; for Left ear thickness, Treated: control (unchallenged) ear
Description: In the present Example, a murine model of Type IV hypersensitivity or delayed-type hypersensitivity (DTH) response to cutaneous contact with the chemical hapten 2,4-dinitrofluorobenzene (DNFB) (Aldrich Chemical Company Inc, USA) was used as a model to measure the anti-inflammatory effects of compounds of the present invention. Specific pathogen-free 8-12 week old female Balb/C mice, weighing 19-21 g, were sensitised in a similar manner to that described by Klimuk et al., (Klimuk et al., 1999) by applying a solution of DNFB (0.5% in acetone:olive oil (4:1, v/v); 30 microliters,) onto a 2 cm^2 shaved area of the abdomen. After 7 days, the animals were anesthetised with diethyl ether and 8 microliters of DNFB (0.35% in acetone:olive oil (4:1, v/v) was applied to the dorsal and ventral surfaces of the right pinna. Prior to regaining consciousness, the mice were implanted intraperitoneally with Alzet 2001 mini-osmotic pumps (Alza Corp., Palo Alto Calif., USA) containing phosphoric acid mono-[6-(3-hexyloxy-propyl)-3,4,5-trihydroxy-tetrahydro-pyran-2-ylmethyl] ester, sodium salt in normal saline. The dose delivered was 50 mg/kg/day. Control animals for this group received saline delivered in identical mini-osmotic pumps. A second experimental group of mice received phosphoric acid mono-[3-(3,4,5-trihydroxy-6-phosphonooxymethyl-tetrahydro-pyran-2-yl)-propyl] ester disodium salt via one-week delivery Alzet 2001 mini-osmotic pumps implanted intraperitoneally. This compound was delivered at a dose of 40 mg/kg/day. Control animals for this group received saline delivered in identical mini-osmotic pumps. In a third experiment a separate group of mice received (3,4,5-trihydroxy-6-phosphonooxymethyl-tetrahydro-pyran-2-yl)-acetic acid disodium salt via one-week delivery Alzet 2001 mini-osmotic pumps that were placed intraperitoneally. This compound was delivered at 45 mg/kg/day. The control group for this experiment received identical mini-osmotic pumps containing normal saline. In a fourth experiment a group of mice received 3-phenyl-2-[2-(3,4,5-trihydroxy-6-phosphonooxymethyl-tetrahydro-pyran-2-yl)-acetylamino]-propionic acid monosodium salt via one-week delivery Alzet 2001 mini-osmotic pumps that were placed subcutaneously. This compound was delivered at 62 mg/kg/day. The control group for this experiment received identical mini-osmotic pumps containing normal saline. In a fifth experiment a group of mice received hexanoic acid 3-(3,4,5-trihydroxy-6-phosphonooxymethyl-tetrahydro-pyran-2-yl)-propyl ester sodium salt via one-week delivery Alzet 2001 mini-osmotic pumps that were placed subcutaneously. This compound was delivered at 40 mg/kg/day. The control group for this experiment received identical mini-osmotic pumps containing normal saline.
Twenty-four hours after challenge the mice were lightly anesthetised with diethyl ether and the thickness of the left and right pinnae measured (in millimeters) using a dial gauge micrometer (Interapid, Switzerland). Care was taken to measure only the outer two thirds of the ear. The increase in ear thickness initiated by the DTH response was determined by subtracting the measurement of the left ear (untreated) from the right ear (challenged).
In Table 4, values in the columns labeled Left and Right are measurements of ear thickness in millimeters of the control and challenged ears respectively.

[2] = test system: passively transferred EAE; experiment: Passively transferred EAE induced with concanavalin A stimulated spleen lymphoblasts (Example 24); format: in vivo, Lewis rats; parameters: key to Clinical score - Treated, Mean: 0 = asymptomatic to 5 = hind limb paralysis; details: for Clinical score - Treated, Mean: group mean; for Mean maximum clinical score / DI (disease index): treated group
Experimental: In a similar type of experiment outlined in Example 20, and in order to study the effect of the agents of the present invention in vivo on a disease caused by T lymphocyte migration into a specific tissue, further experiments were performed in a Lewis rat model of passively transferred EAE. Here, myelin basic protein (MBP)-specific T lymphocytes were generated in spleens of Lewis rats that had been immunised with guinea pig MBP in Freund's complete adjuvant. Thus, in this manner donor T lymphocytes were generated from male 12-20 week old Lewis rats weighing 200 to 250 g. These rats were injected intradermally in a footpad of each hind foot with an emulsion of guinea pig myelin basic protein (MBP; prepared according to the method of Deibler et al., 1972; incorporated herein by reference) in Freund's complete adjuvant (0.1 ml). The adjuvant emulsion was prepared by emulsifying equal volumes of a mixture of 85% light mineral oil (0.8417 g/mL (Sigma)) plus 15% mannide monooleate (Sigma) containing Mycobacterium butyricum (4 mg/ml; Difco) and normal saline containing guinea pig myelin basic protein (0.25 mg/ml). Thus, the total dose per rat was 25 micrograms of MBP and 400 micrograms of M. butyricum. Ten days following injection, the rats were euthanased and the spleens removed aseptically by blunt dissection and placed into mixed lymphocyte culture medium. This medium was prepared in the normal fashion from Dulbecco's Modified Eagle's Medium (DMEM; GIBCO, Grand Island, N.Y.) supplemented with glucose (4 g/L), folic acid (6 mg/L), L-asparagine (36 mg/L), sodium bicarbonate (2 g/L), L-arginine (116 mg/L), L-glutamine (2 mM), sodium pyruvate (1 mM), HEPES (10 mM), 2-mercaptoethanol (5×10^−5 M), penicillin, streptomycin, neomycin, and 10% fetal calf serum. A single cell suspension was prepared from the spleens in the usual manner by gently pushing them through a stainless steel screen. The cells were washed twice and cultured asceptically for 72 hours at 37° C. in a humidified atmosphere containing 5% carbon dioxide at a concentration of 2 million cells per milliliter in the presence of concanavalin A (2 microgram/mL). The cells were collected and washed twice in Hanks balanced salt solution. Cells were resuspended in Hanks balanced salt solution and each recipient animal (10-12 weeks old female Lewis rats; 160-180 g) received 40-42.5 million lymphoblasts by lateral tail vein injection in a volume of 0.5 ml.
In a typical experiment 4-5 recipient rats were anesthetised with diethyl ether and implanted with mini-osmotic pumps (Alzet 2001, Alza Corp., Palo Alto Calif., USA) containing the test compound. A second group of 4 animals, the control group, under ether anesthesia, were implanted with Alzet 2001 pumps containing normal saline. Mini-osmotic pumps were implanted three days after cell transfer. Disease severity (clinical score) was scored on an arbitrary scale of severity ranging from 0 to 5 as follows: 0, asymptomatic; 1, flaccid distal half of tail; 2, entire tail flaccid; 3, ataxia, difficulty in righting reflex; 4, hind limb weakness; 5, hind limb paralysis. Mean maximum clinical scores were calculated and the disease index (DI) for each group was calculated as described in Example 20. The results of these experiments are outlined in Tables 6, 7 and 8.

[3] = 62 mg/kg/day, mini-osmotic pump subcutaneously, monosodium salt
[4] = 40 mg/kg/day, mini-osmotic pump intraperitoneally, disodium salt
[5] = 40 mg/kg/day, mini-osmotic pump subcutaneously, monosodium salt

O=C(CC1OC(COP(=O)(O)O)C(O)C(O)C1O)NC(Cc1ccccc1)C(=O)[O-].[Na+] (stereo not drawn) [3-phenyl-2-[2-(3,4,5-trihydroxy-6-phosphonooxymethyl-tetrahydro-pyran-2-yl)-acetylamino]-propionic acid monosodium salt]
Mean percentage decrease in ear swelling in treated animals ([1]; 62 mg/kg/day subcutaneously): Mean percentage decrease in ear swelling in treated animals: 49.3%
Mean Difference, Treated ([1]; 62 mg/kg/day subcutaneously, saline control mean 0.134): 0.068 millimeters
Difference (right minus left ear), Treated [1, 3]: 0.11 millimeters and 0.09 millimeters and 0.06 millimeters and 0.04 millimeters (2×)
Right ear thickness, Treated [1, 3]: 0.33 millimeters and 0.31 millimeters and 0.29 millimeters and 0.25 millimeters (2×)
Left ear thickness, Treated [1, 3]: 0.22 millimeters (2×) and 0.23 millimeters and 0.21 millimeters (2×)
Clinical score - Treated, Mean ([2]; day 4, 62 mg/kg/day subcutaneously): 0
Clinical score - Treated ([2]; day 4, individual rats, 62 mg/kg/day subcutaneously, scale 0 to 5): 0
Clinical score - Treated, Mean ([2]; day 5, 62 mg/kg/day subcutaneously): 0.8
Clinical score - Treated ([2]; day 5, individual rats, 62 mg/kg/day subcutaneously, scale 0 to 5, monosodium salt, 62 mg/kg/day): 0 (2×) and 1 (2×) and 2
Clinical score - Treated, Mean ([2]; day 6, 62 mg/kg/day subcutaneously): 0.9
Clinical score - Treated ([2]; day 6, individual rats, 62 mg/kg/day subcutaneously, scale 0 to 5, monosodium salt, 62 mg/kg/day): 0 and 0.5 and 1 (2×) and 2
Clinical score - Treated, Mean ([2]; day 7, 62 mg/kg/day subcutaneously): 0.7
Clinical score - Treated ([2]; day 7, individual rats, 62 mg/kg/day subcutaneously, scale 0 to 5, monosodium salt, 62 mg/kg/day): 0 (2×) and 0.5 and 1 and 2
Clinical score - Treated, Mean ([2]; day 8, 62 mg/kg/day subcutaneously): 0.7
Clinical score - Treated ([2]; day 8, individual rats, 62 mg/kg/day subcutaneously, scale 0 to 5, monosodium salt, 62 mg/kg/day): 0 (2×) and 1 (2×) and 1.5
Clinical score - Treated, Mean ([2]; day 9, 62 mg/kg/day subcutaneously): 0.4
Clinical score - Treated ([2]; day 9, individual rats, 62 mg/kg/day subcutaneously, scale 0 to 5, monosodium salt, 62 mg/kg/day): 0 (3×) and 0.5 and 1
Clinical score - Treated, Mean ([2]; day 10, 62 mg/kg/day subcutaneously): 0.2
Clinical score - Treated ([2]; day 10, individual rats, 62 mg/kg/day subcutaneously, scale 0 to 5, monosodium salt, 62 mg/kg/day): 0 (3×) and 0.5 (2×)
Mean maximum clinical score ([2]; 62 mg/kg/day subcutaneously, control 1.5): clinical score 1.0
DI (disease index) ([2]; 62 mg/kg/day subcutaneously, control DI 14.1): DI - 8.13 Mean maximum

O=P([O-])([O-])OCCCC1OC(COP(=O)(O)O)C(O)C(O)C1O.[Na+].[Na+] (stereo not drawn) [phosphoric acid mono-[3-(3,4,5-trihydroxy-6-phosphonooxymethyl-tetrahydro-pyran-2-yl)-propyl] ester disodium salt]
Mean percentage decrease in ear swelling in treated animals ([1]; 40 mg/kg/day intraperitoneally): Mean percentage decrease in ear swelling in treated animals: 30%
Mean Difference, Treated ([1]; 40 mg/kg/day intraperitoneally, saline control mean 0.086): 0.060 millimeters
Difference (right minus left ear), Treated [1, 4]: 0.07 millimeters and 0.03 millimeters and 0.02 millimeters and 0.06 millimeters and 0.12 millimeters
Right ear thickness, Treated [1, 4]: 0.28 millimeters (2×) and 0.25 millimeters and 0.23 millimeters and 0.33 millimeters
Left ear thickness, Treated [1, 4]: 0.21 millimeters (3×) and 0.22 millimeters (2×)
Clinical score - Treated, Mean ([2]; day 4, 40 mg/kg/day intraperitoneally): 0
Clinical score - Treated ([2]; day 4, individual rats, 40 mg/kg/day intraperitoneally, scale 0 to 5): 0
Clinical score - Treated, Mean ([2]; day 5, 40 mg/kg/day intraperitoneally): 1.375
Clinical score - Treated ([2]; day 5; individual rats; 40 mg/kg/day intraperitoneally; scale 0 to 5; disodium salt, 40 mg/kg/day)): 2 (2×) and 0 and 1.5
Clinical score - Treated, Mean ([2]; day 7, 40 mg/kg/day intraperitoneally): 2.125
Clinical score - Treated ([2]; day 7; individual rats; 40 mg/kg/day intraperitoneally; scale 0 to 5; disodium salt, 40 mg/kg/day)): 2.5 and 1 and 3 and 2
Clinical score - Treated, Mean ([2]; day 8, 40 mg/kg/day intraperitoneally): 1.75
Clinical score - Treated ([2]; day 8; individual rats; 40 mg/kg/day intraperitoneally; scale 0 to 5; disodium salt, 40 mg/kg/day)): 2 (2×) and 0.5 and 2.5
Clinical score - Treated, Mean ([2]; day 9, 40 mg/kg/day intraperitoneally): 0.75
Clinical score - Treated ([2]; day 9; individual rats; 40 mg/kg/day intraperitoneally; scale 0 to 5; disodium salt, 40 mg/kg/day)): 1 (3×) and 0
Clinical score - Treated, Mean ([2]; day 10, 40 mg/kg/day intraperitoneally): 0.125
Clinical score - Treated ([2]; day 10; individual rats; 40 mg/kg/day intraperitoneally; scale 0 to 5; disodium salt, 40 mg/kg/day)): 0 (3×) and 0.5
Mean maximum clinical score ([2]; 40 mg/kg/day intraperitoneally, control 3.0): clinical score 2.3
DI (disease index) ([2]; 40 mg/kg/day intraperitoneally, control DI 45.0): DI - 18.6 Mean maximum

CCCCCC(=O)OCCCC1OC(COP(=O)(O)O)C(O)C(O)C1O.[Na] (stereo not drawn) [hexanoic acid 3-(3,4,5-trihydroxy-6-phosphonooxymethyl-tetrahydro-pyran-2-yl)-propyl ester monosodium salt]
Mean percentage decrease in ear swelling in treated animals ([1]; 40 mg/kg/day subcutaneously): Mean percentage decrease in ear swelling in treated animals: 47.6%
Mean Difference, Treated ([1]; 40 mg/kg/day subcutaneously, saline control mean 0.126): 0.066 millimeters
Difference (right minus left ear), Treated [1, 5]: 0.07 millimeters (2×) and 0.08 millimeters and 0.05 millimeters and 0.06 millimeters
Right ear thickness, Treated [1, 5]: 0.29 millimeters (3×) and 0.28 millimeters and 0.27 millimeters
Left ear thickness, Treated [1, 5]: 0.22 millimeters (2×) and 0.21 millimeters (2×) and 0.23 millimeters

— patent US6878690B2, “Compounds and methods” (PharmAxis Pty Ltd., priority 2000, dated 2005)
